This note sets out measurements from PubChem BioAssay AID330 (DTP/NCI, 2004).

Several values for one entry are separate records, joined by “and”; a condition that tells them apart may be missing. Identical values can stand only once. Toxic doses and inconclusive results are not listed.

The assay concerns P388 leukemia ip, CD2F1 mice, survival T/C. In words: NCI In Vivo Anticancer Drug Screen. Data for tumor model P388 Leukemia (intraperitoneal) in CD2F1 (CDF1) mice. To be noted: endpoint: median survival time, higher = longer survival. Here is the method:
The antitumor activity of compounds was measured in mice bearing transplantable tumors. Survival or tumor size were measured and the results are expressed as the measurement made in the treated group (T) divided by the measurement made in the vehicle treated control group (C). The tumor model used in this assay is P388 Leukemia (intraperitoneal) in CD2F1 (CDF1) mice

The mark [1] stands for this setting: dose: 100.0 mg/kg/injection, schedule: Q04DX003 (ip), vehicle: saline with Tween-80.
Setting [2] is: dose: 200.0 mg/kg/injection, schedule: Q04DX003 (ip), vehicle: saline with Tween-80.
The mark [3] stands for this setting: dose: 400.0 mg/kg/injection, schedule: Q04DX003 (ip), vehicle: saline with Tween-80.
The mark [4] stands for this setting: dose: 12.5 mg/kg/injection, schedule: Q01DX005 (ip), vehicle: saline.
Setting [5] is: dose: 50.0 mg/kg/injection, schedule: Q01DX005 (ip), vehicle: saline.
Setting [6] is: dose: 50.0 mg/kg/injection, schedule: Q01DX005 (ip), vehicle: saline with Tween-80.
[7] abbreviates: dose: 100.0 mg/kg/injection, schedule: Q01DX005 (ip), vehicle: saline with Tween-80.
[8] abbreviates: dose: 100.0 mg/kg/injection, schedule: Q04DX003 (ip), vehicle: saline.
[9] abbreviates: dose: 200.0 mg/kg/injection, schedule: Q04DX003 (ip), vehicle: saline.
[10] abbreviates: dose: 400.0 mg/kg/injection, schedule: Q04DX003 (ip), vehicle: saline.

Turning to `O=C1C(=Nc2ccccc2)Cc2ccccc21`, the T/C reads like this: under setting [1], 100 % of control; under setting [2], 96 % of control; under setting [3], 100 % of control.

For `COc1ccc(-c2c[s+]cs2)cc1`, the T/C is, setting by setting: (dose: 6.25 mg/kg/injection, schedule: Q01DX009 (ip), vehicle: distilled water + Tween-80) 103 % of control; (dose: 12.5 mg/kg/injection, schedule: Q01DX009 (ip), vehicle: distilled water + Tween-80) 112 % of control; (dose: 25.0 mg/kg/injection, schedule: Q01DX009 (ip), vehicle: distilled water + Tween-80) 100 % of control; (dose: 50.0 mg/kg/injection, schedule: Q01DX009 (ip), vehicle: distilled water + Tween-80) 116 % of control; (dose: 100.0 mg/kg/injection, schedule: Q01DX009 (ip), vehicle: distilled water + Tween-80) 109 % of control; (dose: 200.0 mg/kg/injection, schedule: Q01DX009 (ip), vehicle: distilled water + Tween-80) 93 % of control.

Turning to `COc1c(OC2OC(CO)C(O)C(O)C2O)cc2c(c1OC)-c1ccc(OC)c(=O)cc1C(NC(C)=O)CC2` (configuration not stated), the T/C was 108 % of control under setting [4]; 106 % of control (dose: 25.0 mg/kg/injection, schedule: Q01DX005 (ip), vehicle: saline); 117 % of control and 121 % of control under setting [5].

With `CC1(C)C[C@H](O)[C@H]2O[C@@]2(C)C1`, the T/C is, setting by setting: (dose: 100.0 mg/kg/injection, schedule: Q04DX002 (ip), vehicle: saline) 95 % of control; (dose: 200.0 mg/kg/injection, schedule: Q04DX002 (ip), vehicle: saline) 96 % of control; (dose: 400.0 mg/kg/injection, schedule: Q04DX002 (ip), vehicle: saline) 105 % of control.

As for `CCCC(=O)Nc1ccc([N+](=O)[O-])cc1OC`, the T/C runs as follows: under setting [1], 88 % of control; under setting [2], 100 % of control; under setting [3], 100 % of control.

With `CC[P+](CC)(c1ccccc1)c1ccccc1`, the T/C (dose: 3.12 mg/kg/injection, schedule: Q01DX005 (ip), vehicle: saline) was 94 % of control; the T/C (dose: 6.25 mg/kg/injection, schedule: Q01DX005 (ip), vehicle: saline) is 95 % of control; the T/C under setting [4] was 100 % of control.

As to `C1=C(c2ccccc2)C(c2ccc(OCCN3CCCCC3)cc2)Oc2ccccc21` (configuration not stated), the T/C was 92 % of control under setting [6] and 86 % of control under setting [7].

Turning to `COC1=CC(=O)C(C2(OC(C)C)OC(=O)C(Cl)=C2Cl)=CC1=O` (configuration not stated), the T/C is, setting by setting: under setting [6], 119 % of control; under setting [7], 111 % of control.

For the molecule `COc1cccc2c1C(=O)c1c(O)c3c(c(O)c1C2=O)CC(O)(C(=O)COC(C)C)CC3O` (configuration not stated), the T/C was 100 % of control (dose: 1.56 mg/kg/injection, schedule: Q01DX009 (ip), vehicle: other); 100 % of control (dose: 3.13 mg/kg/injection, schedule: Q01DX009 (ip), vehicle: other); 100 % of control (dose: 6.25 mg/kg/injection, schedule: Q01DX009 (ip), vehicle: other); 103 % of control (dose: 12.5 mg/kg/injection, schedule: Q01DX009 (ip), vehicle: other); 103 % of control (dose: 25.0 mg/kg/injection, schedule: Q01DX009 (ip), vehicle: other).

Turning to `CCCCOP(=S)(N1CC1)N1CC1`, the T/C reads like this: (dose: 6.25 mg/kg/injection, schedule: Q04DX003 (ip), vehicle: saline with Tween-80) 154 % of control; (dose: 12.5 mg/kg/injection, schedule: Q04DX003 (ip), vehicle: saline with Tween-80) 195 % of control; (dose: 25.0 mg/kg/injection, schedule: Q04DX003 (ip), vehicle: saline with Tween-80) 236 % of control; (dose: 44.0 mg/kg/injection, schedule: Q04DX003 (ip), vehicle: saline with Tween-80) 204 % of control; (dose: 50.0 mg/kg/injection, schedule: Q04DX003 (ip), vehicle: saline with Tween-80) 259 % of control; (dose: 66.0 mg/kg/injection, schedule: Q04DX003 (ip), vehicle: saline with Tween-80) 200 % of control. The T/C under setting [1] is 179 % of control and the T/C (dose: 150.0 mg/kg/injection, schedule: Q04DX003 (ip), vehicle: saline with Tween-80) was 100 % of control.

Regarding `O=[N+]([O-])c1ccc(S(=O)(=O)C/C=C/CCl)c([N+](=O)[O-])c1`, the T/C was 113 % of control (dose: 12.5 mg/kg/injection, schedule: Q01DX009 (ip), vehicle: saline with Tween-80) and 90 % of control (dose: 25.0 mg/kg/injection, schedule: Q01DX009 (ip), vehicle: saline with Tween-80).

`CN(C)[C@@H]1C(=O)C(C(=O)NCNc2nc3n[nH]nc3c(=O)[nH]2)=C(O)[C@@]2(O)C(=O)C3=C(O)c4c(O)cccc4[C@@](C)(O)[C@H]3C[C@@H]12`: the T/C was 102 % of control (dose: 50.0 mg/kg/injection, schedule: Q04DX003 (ip), vehicle: saline); 100 % of control under setting [8]; 107 % of control under setting [9]; 111 % of control under setting [10].

Take `CN1N=Nc2ccccc2NC1=O`: the T/C is, setting by setting: under setting [6], 96 % of control; under setting [7], 99 % of control; (dose: 200.0 mg/kg/injection, schedule: Q01DX005 (ip), vehicle: saline with Tween-80) 91 % of control.

Take `CN1C(=C2C=CC(=NS(=O)(=O)c3ccc(Cl)cc3)C=C2)Sc2ccccc21`: the T/C under setting [8] was 105 % of control, the T/C under setting [9] is 106 % of control and the T/C under setting [10] is 100 % of control.

Take `CCOC(=O)Nc1cc2c(c(N)n1)N=C(c1ccccc1)C(C)N2` (configuration not stated): the T/C runs as follows: (dose: 0.5 mg/kg/injection, schedule: Q01DX005 (ip), vehicle: saline) 123 % of control; (dose: 0.75 mg/kg/injection, schedule: Q01DX005 (ip), vehicle: saline) 121 % of control; (dose: 1.0 mg/kg/injection, schedule: Q01DX005 (ip), vehicle: saline) 171 % of control.

On to `CC(=O)NC1C(Nc2ccc(S(=O)(=O)Nc3nccc(C)n3)cc2)OC(CO)C(O)C1O` (configuration not stated), for which the T/C is, setting by setting: under setting [5], 100 % of control; (dose: 100.0 mg/kg/injection, schedule: Q01DX005 (ip), vehicle: saline) 105 % of control; (dose: 200.0 mg/kg/injection, schedule: Q01DX005 (ip), vehicle: saline) 92 % of control.

Consider `Cc1ccc(N2C(=O)C(C)SC23C(=O)Nc2ccc(Cl)cc23)cc1` (configuration not stated), for which the T/C by setting is: (dose: 60.0 mg/kg/injection, schedule: Q01DX005 (ip), vehicle: saline with Tween-80) 91 % of control; (dose: 120.0 mg/kg/injection, schedule: Q01DX005 (ip), vehicle: saline with Tween-80) 96 % of control; (dose: 240.0 mg/kg/injection, schedule: Q01DX005 (ip), vehicle: saline with Tween-80) 100 % of control.

For `CC1=NC2=CC=CC3=NC(C(Cl)(Cl)Cl)=NC(=N1)N23`, the T/C by setting is: (dose: 60.0 mg/kg/injection, schedule: Q01DX005 (ip), vehicle: Klucel + Tween-80) 102 % of control; (dose: 120.0 mg/kg/injection, schedule: Q01DX005 (ip), vehicle: Klucel + Tween-80) 102 % of control; (dose: 240.0 mg/kg/injection, schedule: Q01DX005 (ip), vehicle: Klucel + Tween-80) 102 % of control.

As for `CCN(Cc1ccc(Cl)c(Cl)c1)c1ccc2nc(N)nc(N)c2c1C`, the T/C (dose: 6.25 mg/kg/injection, schedule: Q01DX009 (ip), vehicle: Klucel (hydroxypropylcellulose) (HPC)) was 121 % of control; the T/C (dose: 12.5 mg/kg/injection, schedule: Q01DX009 (ip), vehicle: Klucel (hydroxypropylcellulose) (HPC)) was 116 % of control; the T/C (dose: 12.5 mg/kg/injection, schedule: Q04DX003 (ip), vehicle: water) was 116 % of control and 91 % of control; the T/C (dose: 25.0 mg/kg/injection, schedule: Q01DX009 (ip), vehicle: Klucel (hydroxypropylcellulose) (HPC)) was 114 % of control; the T/C (dose: 25.0 mg/kg/injection, schedule: Q04DX003 (ip), vehicle: water) was 114 % of control and 122 % of control; the T/C (dose: 50.0 mg/kg/injection, schedule: Q04DX003 (ip), vehicle: water) was 155 % of control. Further, the T/C (dose: 100.0 mg/kg/injection, schedule: Q04DX003 (ip), vehicle: water) is 117 % of control and 90 % of control.

As for `O=C1C2=C(C(=O)C3=C1C1C=CC3C1)C1C=CC2C1`, the T/C is 118 % of control (dose: 100.0 mg/kg/injection, schedule: Q04DX003 (ip), vehicle: Klucel (hydroxypropylcellulose) (HPC)); 102 % of control (dose: 200.0 mg/kg/injection, schedule: Q04DX003 (ip), vehicle: Klucel (hydroxypropylcellulose) (HPC)); 96 % of control (dose: 400.0 mg/kg/injection, schedule: Q04DX003 (ip), vehicle: Klucel (hydroxypropylcellulose) (HPC)).
